Results published in PMC4823786, “Redirection of pyruvate flux toward desired metabolic pathways through substrate channeling between pyruvate kinase and pyruvate-converting enzymes in Saccharomyces cerevisiae” (Scientific Reports, 2016).

Target: T1, His6-LdhA (Leuconostoc mesenteroides, UniProt Q03VC9)
T1 construct: gene LEUM_1756; N-terminal His6 tag (pET28b), expressed in E. coli Rogetta gami2 (DE3) pLysS, Ni-NTA purified
Assay: NADH oxidation monitored at […] nm
Assay type: biochemical
Conditions: 10 mM sodium pyruvate, 0.2 mM β-NADH, 50 mM Tris-HCl pH 7.0

T1 sequence (Q03VC9 entry or part of it): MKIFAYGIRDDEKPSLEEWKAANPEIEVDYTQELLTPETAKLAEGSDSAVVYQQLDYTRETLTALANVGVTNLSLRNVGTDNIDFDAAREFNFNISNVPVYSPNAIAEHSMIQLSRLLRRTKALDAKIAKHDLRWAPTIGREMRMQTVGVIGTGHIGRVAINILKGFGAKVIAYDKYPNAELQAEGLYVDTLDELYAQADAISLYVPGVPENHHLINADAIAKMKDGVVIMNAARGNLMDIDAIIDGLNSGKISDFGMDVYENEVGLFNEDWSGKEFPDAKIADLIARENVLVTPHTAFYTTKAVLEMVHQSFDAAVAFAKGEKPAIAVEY

Structure (SMILES) | NADH oxidation monitored at 340 nm
NC(=O)C1=CN([C@@H]2O[C@H](COP(=O)(O)OP(=O)(O)OC[C@H]3O[C@@H](n4cnc5c(N)ncnc54)[C@H](O)[C@@H]3O)[C@@H](O)[C@H]2O)C=CC1 [NADH] | reduction of pyruvate to lactate was monitored by measuring the oxidation rate of NADH
CC(=O)C(=O)O [pyruvate] | reduction of pyruvate to lactate was monitored by measuring the oxidation rate of NADH
